Data: PubChem BioAssay AID1745844 (Carcinogenic Potency Database (CPDB), 2022)
Values joined by “and” are separate entries in the source; they are usually repeats but may differ in a detail not shown here. Identical values can stand only once. Active and inactive are the calls of the source. The rule behind the calls is not given here.

System: rodent lifetime carcinogenesis bioassay, tumor incidence TD50
Assay: carcinogenic potency in animals, long-term in vivo studies, CPDB compilation (AID 1745844)

SMILES: Nc1ccc(Oc2ccc(Cl)cc2)cc1
- TD50 (mouse, strain CD-1 HaM/ICR, females, in feed, site: all sites, lesion: all vascular tumors, dosed 68 weeks, study length 86 weeks): 346 mg/kg/day
- TD50 (mouse, strain CD-1 HaM/ICR, females, in feed, site: any site (literature study), lesion: several types, types named in the paper, dosed 68 weeks, study length 86 weeks): 598 mg/kg/day
- TD50 (mouse, strain CD-1 HaM/ICR, females, in feed, site: liver, lesion: several types, types named in the paper, dosed 68 weeks, study length 86 weeks): 905 mg/kg/day
- TD50 (mouse, strain CD-1 HaM/ICR, females, in feed, site: urinary bladder, lesion: several types, types named in the paper, dosed 68 weeks, study length 86 weeks): 1130 mg/kg/day
- carcinogen call (mouse, strain CD-1 HaM/ICR, males, in feed, site: any site (literature study), lesion: several types, types named in the paper, dosed 51 weeks, study length 55 weeks): negative (inactive)
- carcinogen call (mouse, strain CD-1 HaM/ICR, males, in feed, site: liver, lesion: several types, types named in the paper, dosed 51 weeks, study length 55 weeks): negative (inactive)
- carcinogen call (mouse, strain CD-1 HaM/ICR, males, in feed, site: lung, lesion: several types, types named in the paper, dosed 51 weeks, study length 55 weeks): negative (inactive)
- TD50 (rat, strain Charles River CD (Sprague-Dawley), males, in feed, site: any site (literature study), lesion: several types, types named in the paper, dosed 77 weeks, study length 98 weeks): 25.1 mg/kg/day
- TD50 (rat, strain Charles River CD (Sprague-Dawley), males, in feed, site: liver, lesion: hepatoma, dosed 77 weeks, study length 98 weeks): 37.9 mg/kg/day and 37.6 mg/kg/day
- TD50 (rat, strain Charles River CD (Sprague-Dawley), males, in feed, site: liver, lesion: several types, types named in the paper, dosed 77 weeks, study length 98 weeks): 37.9 mg/kg/day

SMILES: N[C@@H](CCC(=O)NNc1ccc(C(=O)O)cc1)C(=O)O
- TD50 (mouse, strain Swiss albino, females, by gavage, site: liver, lesion: several types, types named in the paper, dosed 52 weeks, study length 133 weeks): 41400 mg/kg/day
- TD50 (mouse, strain Swiss albino, males, by gavage, site: lung, lesion: several types, types named in the paper, dosed 52 weeks, study length 133 weeks): 250 mg/kg/day
- TD50 (mouse, strain Swiss albino, males, by gavage, site: subcutaneous tissue, lesion: fibrosarcoma, dosed 52 weeks, study length 133 weeks): 277 mg/kg/day

SMILES: C=CCc1ccc(O)c(OC)c1
- TD50 (mouse, strain B6C3F1, females, in feed, site: liver, lesion: hepatocellular adenoma + hepatocellular carcinoma + neoplastic nodule, dosed 103 weeks, study length 104 weeks): 2910 mg/kg/day
- TD50 (mouse, strain B6C3F1, females, in feed, site: liver, lesion: hepatocellular adenoma + hepatocellular carcinoma, dosed 103 weeks, study length 104 weeks): 2910 mg/kg/day
- TD50 (mouse, strain B6C3F1, females, in feed, site: lung, lesion: alveolar/bronchiolar adenoma + alveolar/bronchiolar carcinoma, dosed 103 weeks, study length 104 weeks): 25300 mg/kg/day
- TD50 (mouse, strain B6C3F1, males, in feed, site: any site (literature study), lesion: several types, types named in the paper, dosed 103 weeks, study length 104 weeks): 1550 mg/kg/day
- TD50 (mouse, strain B6C3F1, males, in feed, site: liver, lesion: hepatocellular adenoma + hepatocellular carcinoma + neoplastic nodule, dosed 103 weeks, study length 104 weeks): 451 mg/kg/day
- TD50 (mouse, strain B6C3F1, males, in feed, site: liver, lesion: hepatocellular adenoma + hepatocellular carcinoma, dosed 103 weeks, study length 104 weeks): 451 mg/kg/day
- TD50 (mouse, strain B6C3F1, males, in feed, site: liver, lesion: hepatocellular adenoma, dosed 103 weeks, study length 104 weeks): 781 mg/kg/day
- TD50 (mouse, strain B6C3F1, males, in feed, site: liver, lesion: hepatocellular carcinoma, dosed 103 weeks, study length 104 weeks): 710 mg/kg/day
- TD50 (mouse, strain B6C3F1, males, in feed, site: thyroid gland, lesion: follicular-cell adenoma, dosed 103 weeks, study length 104 weeks): 8520 mg/kg/day
- carcinogen call (mouse, strain Charles River CD1, females, in feed, site: liver, lesion: one or several types, types not named, dosed 50 weeks, study length 78 weeks): negative (inactive)
- carcinogen call (mouse, strain Charles River CD1, females, in feed, site: lung, lesion: adenoma, dosed 50 weeks, study length 78 weeks): negative (inactive)
- carcinogen call (rat, strain Fischer 344, females, in feed, site: any site (literature study), lesion: several types, types named in the paper, dosed 103 weeks, study length 104 weeks): negative (inactive)
- TD50 (rat, strain Fischer 344, males, in feed, site: any site (literature study), lesion: several types, types named in the paper, dosed 103 weeks, study length 104 weeks): 293 mg/kg/day
- TD50 (rat, strain Fischer 344, males, in feed, site: lung, lesion: alveolar/bronchiolar adenoma + alveolar/bronchiolar carcinoma, dosed 103 weeks, study length 104 weeks): 424 mg/kg/day (inactive)

SMILES: CN(C)N=Nc1ccccc1
- TD50 (rat, strain BD, both sexes, by gavage, site: any site (literature study), lesion: malignant tumor, dosed 104 weeks, study length 104 weeks): 2.31 mg/kg/day
- TD50 (rat, strain BD, both sexes, by gavage, site: brain, lesion: several types, types named in the paper, dosed 104 weeks, study length 104 weeks): 5.81 mg/kg/day

SMILES: F
- carcinogen call (mouse, strain B6C3F1, females, in drinking water, site: any site (literature study), lesion: several types, types named in the paper, dosed 103 weeks, study length 104 weeks): negative (inactive)
- carcinogen call (mouse, strain B6C3F1, males, in drinking water, site: any site (literature study), lesion: several types, types named in the paper, dosed 103 weeks, study length 104 weeks): negative (inactive)
- carcinogen call (mouse, strain Charles River CD1, both sexes, in drinking water, site: any site (literature study), lesion: malignant tumor, dosed 129 weeks, study length 129 weeks): negative (inactive)
- carcinogen call (mouse, strain Charles River CD1, both sexes, in drinking water, site: any site (literature study), lesion: one or several types, types not named, dosed 129 weeks, study length 129 weeks): negative (inactive)
- carcinogen call (mouse, strain Charles River CD1, both sexes, in drinking water, site: liver, lesion: one or several types, types not named, dosed 129 weeks, study length 129 weeks): negative (inactive)
- carcinogen call (mouse, strain Charles River CD1, both sexes, in drinking water, site: lung, lesion: one or several types, types not named, dosed 129 weeks, study length 129 weeks): negative (inactive)
- carcinogen call (mouse, strain DBA, females, in feed, site: mammary gland, lesion: carcinoma, dosed 90 weeks, study length 90 weeks): negative (inactive)
- TD50 (rat, strain Fischer 344, females, in drinking water, site: any site (literature study), lesion: several types, types named in the paper, dosed 103 weeks, study length 104 weeks): 73.9 mg/kg/day (inactive)
- TD50 (rat, strain Fischer 344, males, in drinking water, site: any site (literature study), lesion: several types, types named in the paper, dosed 103 weeks, study length 104 weeks): 147 mg/kg/day
- TD50 (rat, strain Fischer 344, males, in drinking water, site: coccyx + humerus + subcutaneous tissue + vertebra, lesion: osteosarcoma, dosed 103 weeks, study length 104 weeks): 82.7 mg/kg/day
- TD50 (rat, strain Fischer 344, males, in drinking water, site: coccyx + humerus + vertebra, lesion: osteosarcoma, dosed 103 weeks, study length 104 weeks): 109 mg/kg/day

SMILES: Oc1ccc(OCc2ccccc2)cc1
- carcinogen call (mouse, strain B6AKF1, females, oral dosing, site: any site (literature study), lesion: several types, types named in the paper, dosed 76 weeks, study length 76 weeks): negative (inactive)
- carcinogen call (mouse, strain B6AKF1, females, oral dosing, site: liver, lesion: hepatoma, dosed 76 weeks, study length 76 weeks): negative (inactive)
- carcinogen call (mouse, strain B6AKF1, females, oral dosing, site: lung, lesion: adenoma, dosed 76 weeks, study length 76 weeks): negative (inactive)
- carcinogen call (mouse, strain B6AKF1, males, oral dosing, site: any site (literature study), lesion: several types, types named in the paper, dosed 76 weeks, study length 76 weeks): negative (inactive)
- carcinogen call (mouse, strain B6AKF1, males, oral dosing, site: liver, lesion: hepatoma, dosed 76 weeks, study length 76 weeks): negative (inactive)
- carcinogen call (mouse, strain B6AKF1, males, oral dosing, site: lung, lesion: adenoma, dosed 76 weeks, study length 76 weeks): negative (inactive)
- TD50 (mouse, strain B6C3F1, females, oral dosing, site: any site (literature study), lesion: several types, types named in the paper, dosed 76 weeks, study length 76 weeks): 1230 mg/kg/day (inactive)
- carcinogen call (mouse, strain B6C3F1, females, oral dosing, site: liver, lesion: hepatoma, dosed 76 weeks, study length 76 weeks): negative (inactive)
- carcinogen call (mouse, strain B6C3F1, females, oral dosing, site: lung, lesion: several types, types named in the paper, dosed 76 weeks, study length 76 weeks): negative (inactive)
- TD50 (mouse, strain B6C3F1, males, oral dosing, site: any site (literature study), lesion: several types, types named in the paper, dosed 76 weeks, study length 76 weeks): 141 mg/kg/day (inactive)
- TD50 (mouse, strain B6C3F1, males, oral dosing, site: liver, lesion: hepatoma, dosed 76 weeks, study length 76 weeks): 382 mg/kg/day (inactive)
- TD50 (mouse, strain B6C3F1, males, oral dosing, site: lung, lesion: adenoma, dosed 76 weeks, study length 76 weeks): 382 mg/kg/day (inactive)

SMILES: Cn1c(=O)c2[nH]cnc2n(C)c1=O
- TD50 (mouse, strain B6C3F1, females, by gavage, site: all sites, lesion: histiocytic sarcoma, dosed 103 weeks, study length 104 weeks): 20.5 mg/kg/day (inactive)
- carcinogen call (mouse, strain B6C3F1, males, by gavage, site: any site (literature study), lesion: several types, types named in the paper, dosed 103 weeks, study length 104 weeks): negative (inactive)
- carcinogen call (rat, strain Fischer 344, females, by gavage, site: any site (literature study), lesion: several types, types named in the paper, dosed 104 weeks, study length 104 weeks): negative (inactive)
- carcinogen call (rat, strain Fischer 344, males, by gavage, site: any site (literature study), lesion: several types, types named in the paper, dosed 104 weeks, study length 104 weeks): negative (inactive)

SMILES: CC(C)N(C(=O)SCC(Cl)=CCl)C(C)C
- TD50 (mouse, strain B6AKF1, females, oral dosing, site: any site (literature study), lesion: several types, types named in the paper, dosed 85 weeks, study length 85 weeks): 1990 mg/kg/day
- TD50 (mouse, strain B6AKF1, females, oral dosing, site: liver, lesion: hepatoma, dosed 85 weeks, study length 85 weeks): 516 mg/kg/day
- TD50 (mouse, strain B6AKF1, females, oral dosing, site: lung, lesion: adenoma, dosed 85 weeks, study length 85 weeks): 4260 mg/kg/day
- TD50 (mouse, strain B6AKF1, males, oral dosing, site: any site (literature study), lesion: several types, types named in the paper, dosed 84 weeks, study length 84 weeks): 35.4 mg/kg/day
- TD50 (mouse, strain B6AKF1, males, oral dosing, site: liver, lesion: hepatoma, dosed 84 weeks, study length 84 weeks): 43 mg/kg/day
- TD50 (mouse, strain B6AKF1, males, oral dosing, site: lung, lesion: adenoma, dosed 84 weeks, study length 84 weeks): 243 mg/kg/day
- TD50 (mouse, strain B6C3F1, females, oral dosing, site: any site (literature study), lesion: several types, types named in the paper, dosed 83 weeks, study length 83 weeks): 90.8 mg/kg/day
- TD50 (mouse, strain B6C3F1, females, oral dosing, site: liver, lesion: several types, types named in the paper, dosed 83 weeks, study length 83 weeks): 164 mg/kg/day
- TD50 (mouse, strain B6C3F1, females, oral dosing, site: lung, lesion: adenoma, dosed 83 weeks, study length 83 weeks): 255 mg/kg/day
- TD50 (mouse, strain B6C3F1, males, oral dosing, site: any site (literature study), lesion: several types, types named in the paper, dosed 84 weeks, study length 84 weeks): 15.6 mg/kg/day
- TD50 (mouse, strain B6C3F1, males, oral dosing, site: liver, lesion: hepatoma, dosed 84 weeks, study length 84 weeks): 19.4 mg/kg/day
- TD50 (mouse, strain B6C3F1, males, oral dosing, site: lung, lesion: adenoma, dosed 84 weeks, study length 84 weeks): 113 mg/kg/day

SMILES: CS(=O)(=O)OCCCCOS(C)(=O)=O
- TD50 (rat, strain BR 46, males, by gavage, site: any site (literature study), lesion: benign tumor, dosed 52 weeks, study length 104 weeks): 0.642 mg/kg/day
- TD50 (rat, strain BR 46, males, by gavage, site: any site (literature study), lesion: malignant tumor, dosed 52 weeks, study length 104 weeks): 0.117 mg/kg/day
- TD50 (rat, strain BR 46, males, by gavage, site: any site (literature study), lesion: several types, types named in the paper, dosed 52 weeks, study length 104 weeks): 0.0931 mg/kg/day

SMILES: CCn1cc(C(=O)O)c(=O)c2cc3c(cc21)OCO3
- TD50 (mouse, strain ICR, females, in feed, site: liver, lesion: hepatocellular adenoma, dosed 78 weeks, study length 78 weeks): 572 mg/kg/day
- TD50 (mouse, strain ICR, females, in feed, site: lung, lesion: adenoma, dosed 78 weeks, study length 78 weeks): 55.1 mg/kg/day
- TD50 (rat, strain Wistar, females, in feed, site: any site (literature study), lesion: benign tumor, dosed 104 weeks, study length 104 weeks): 589 mg/kg/day
- TD50 (rat, strain Wistar, females, in feed, site: any site (literature study), lesion: malignant tumor, dosed 104 weeks, study length 104 weeks): 1040 mg/kg/day
- TD50 (rat, strain Wistar, females, in feed, site: any site (literature study), lesion: several types, types named in the paper, dosed 104 weeks, study length 104 weeks): 68.5 mg/kg/day
- TD50 (rat, strain Wistar, females, in feed, site: liver, lesion: hepatocellular carcinoma, dosed 104 weeks, study length 104 weeks): 2440 mg/kg/day
- TD50 (rat, strain Wistar, males, in feed, site: any site (literature study), lesion: malignant tumor, dosed 104 weeks, study length 104 weeks): 1790 mg/kg/day
- TD50 (rat, strain Wistar, males, in feed, site: testis, lesion: Leydig-cell adenoma, dosed 104 weeks, study length 104 weeks): 167 mg/kg/day
